# Laboratory results: patent US20260125400A1, “TYK2 DEGRADERS AND USES THEREOF” (Kymera Therapeutics, Inc., priority 2023, published 2026)
# Where two headings read alike, the source gives them in different places.
# Target: T1, TYK2 (Homo sapiens, UniProt P29597)
# T1 construct: Degradation of TYK2 in cells was quantitatively measured using Meso Scale Discovery (MSD) technology; endogenous in cells; host or cells: OCI-LY10
# Test: TYK2 MSD degradation in OCI-LY10 cells
# Assay type: cell-based
# Conditions: 4 to 24 hours incubation; for DC50: read-out: TYK2 MSD OCI-LY10 Rel-DC50
# Outline: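 OCI-LY10 cells were treated with 9-dose 1:3 series (top 1 to 10 μM final) for 4 to 24 hours at 37° C. Lysate TYK2 quantified by MSD sandwich immunoassay; DC50 and Dmax from four-parameter inhibitor vs. response fit.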
# [1] = TYK2 degradation in OCI-LY10 cells
# T1 sequence (P29597 whole entry): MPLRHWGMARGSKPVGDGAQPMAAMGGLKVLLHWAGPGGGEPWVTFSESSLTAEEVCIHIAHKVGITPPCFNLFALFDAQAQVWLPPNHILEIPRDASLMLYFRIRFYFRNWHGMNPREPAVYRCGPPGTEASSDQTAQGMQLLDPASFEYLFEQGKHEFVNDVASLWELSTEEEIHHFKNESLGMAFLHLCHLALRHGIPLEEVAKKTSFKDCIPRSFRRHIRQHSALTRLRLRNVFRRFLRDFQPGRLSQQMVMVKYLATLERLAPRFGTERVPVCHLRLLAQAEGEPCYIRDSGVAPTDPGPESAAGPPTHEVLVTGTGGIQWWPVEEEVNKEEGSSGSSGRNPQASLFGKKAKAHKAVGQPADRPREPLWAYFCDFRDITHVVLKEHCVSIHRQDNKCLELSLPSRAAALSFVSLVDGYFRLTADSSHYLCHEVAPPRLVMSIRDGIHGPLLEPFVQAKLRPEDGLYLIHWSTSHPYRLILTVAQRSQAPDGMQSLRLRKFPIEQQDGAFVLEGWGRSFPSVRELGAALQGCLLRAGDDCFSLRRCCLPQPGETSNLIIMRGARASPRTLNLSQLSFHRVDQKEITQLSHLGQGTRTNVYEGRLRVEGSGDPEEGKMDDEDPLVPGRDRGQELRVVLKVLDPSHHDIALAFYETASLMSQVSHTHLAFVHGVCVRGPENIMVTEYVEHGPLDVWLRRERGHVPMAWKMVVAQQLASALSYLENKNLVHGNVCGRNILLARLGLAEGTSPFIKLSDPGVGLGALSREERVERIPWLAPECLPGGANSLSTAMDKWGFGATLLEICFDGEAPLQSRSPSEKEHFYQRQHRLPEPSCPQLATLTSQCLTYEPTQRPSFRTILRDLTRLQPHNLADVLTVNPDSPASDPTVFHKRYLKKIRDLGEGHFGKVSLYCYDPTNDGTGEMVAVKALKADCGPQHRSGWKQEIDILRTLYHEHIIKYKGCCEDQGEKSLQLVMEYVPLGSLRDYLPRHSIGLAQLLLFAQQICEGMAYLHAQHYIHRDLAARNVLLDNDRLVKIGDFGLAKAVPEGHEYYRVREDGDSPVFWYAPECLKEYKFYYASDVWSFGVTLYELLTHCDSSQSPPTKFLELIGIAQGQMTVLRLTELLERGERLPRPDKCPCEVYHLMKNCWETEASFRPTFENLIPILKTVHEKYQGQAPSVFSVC
SMILES,TYK2 MSD OCI-LY10 Dmax % [1],DC50 [1] [nM],TYK2 MSD OCI-LY10 Dmax % (OCI-LY10 cells),DC50 (OCI-LY10 cells) [nM],Dmax [1] [%]
CNC(=O)c1cnc(Nc2ccc(C(=O)NCCOCCOCCOCCN(C(=O)C3CCCN(c4cncc5ccccc45)C3)c3ccc(=O)n(CC(=O)O)c3)cn2)cc1Nc1cccc(-c2ncccn2)c1OC (stereo not shown) [I-918],D (D (<50%)),> 100,,,
CNc1cc(N2CCc3c(CN4CCC5(CC4)CCN(C4CCN(C(=O)c6ccc(Cl)c(N7CCC(=O)NC7=O)c6)CC4)CC5(F)F)cccc32)nn2c(C(=O)N[C@@H]3C[C@@H]3F)cnc12 [I-833],B (B (90 to >75%)),< 10,,,
CNc1cc(N2CCc3c(-c4ncc(CN5CCC6(CCN(C(=O)c7cc(C)c(Cl)c(N8CCC(=O)NC8=O)c7)CC6)C(F)(F)C5)cc4F)cccc32)nn2c(C(=O)N[C@@H]3C[C@@H]3F)cnc12 [I-818],B (B (90 to >75%)),< 10,,,
CNc1cc(N2CCc3c(-c4ncc(CN5CC6(CCN(C(=O)c7cc(N8CCC(=O)NC8=O)c(Cl)cn7)CC6(F)F)C5)cc4F)cc(F)cc32)nn2c(C(=O)N[C@@H]3CC[C@H]3OC)cnc12 [I-1149],A (A (>90%)),< 1,,,
CNc1cc(N2CCc3c(N4CC(CN5CCN(C6CCN(C(=O)c7ccc(Cl)c(N8CCC(=O)NC8=O)c7)CC6)CC5)C4)cccc32)nn2c(C(=O)N[C@@H]3C[C@@H]3F)cnc12 [I-787],,,D (D (<50%)),> 100,
CNc1cc(N2CCc3c(CN4CCC(N5CCC6(CCN(C(=O)c7cc(N8CCC(=O)NC8=O)c(C)c(Cl)c7F)CC6)CC5)C(F)(F)C4)cccc32)nn2c(C(=O)N[C@@H]3CC[C@H]3OC)cnc12 (stereo partly shown) [I-1125],A (A (>90%)),< 1,,,
CNc1cc(N2CCc3c(-c4ccc(N5CCC6(CCN(C(=O)c7ccc(Cl)c(N8CCC(=O)NC8=O)c7)CC6)CC5)cn4)cccc32)nn2c(C(=O)N[C@@H]3C[C@@H]3F)cnc12 [I-249],D (D (<50%)),> 100,,,
CNc1cc(N2CCc3c(-c4ncc(CN5CC6(CCN(C(=O)c7cc(Cl)c(C)c(N8CCC(=O)NC8=O)c7)CC6(F)F)C5)cc4F)cc(F)cc32)nn2c(C(=O)NC3CCC3OC)cnc12 (stereo not shown) [I-1038],A (A (>90%)),< 1,,,
CNc1cc(N2CCc3c(CN4CCC(CN5CCC6(CCN(C(=O)c7ccc(Cl)c(N8CCC(=O)NC8=O)c7)CC6)C(F)(F)C5)C(F)(F)C4)cccc32)nn2c(C(=O)N[C@@H]3CC[C@H]3OC)cnc12 (stereo partly shown) [I-1124],A (A (>90%)),< 1,,,
CNc1cc(N2CCc3c(-c4ccc(CN5CC6(CCN(C(=O)c7ccc(Cl)c(N8CCC(=O)NC8=O)c7)CC6(F)F)C5)cn4)cc(OC)cc32)nn2c(C(=O)N[C@@H]3C[C@@H]3F)cnc12 [I-859],B (B (90 to >75%)),< 10,,,
CNc1cc(N2CCc3c(-c4ccc(CN5CCC6(CCN(C(=O)c7cc(F)c(C)c(N8CCC(=O)NC8=O)c7)CC6)C(F)(F)C5)cn4)cccc32)nn2c(C(=O)N[C@@H]3C[C@@H]3F)cnc12 [I-657],,,A (A (>90%)),< 1,
CNc1cc(N2CCc3c(-c4ccc(CN5CC6(CCN(Cc7c(C)ccc(N8CCC(=O)NC8=O)c7C)CC6(F)F)C5)cn4)cccc32)nn2c(C(=O)N[C@@H]3C[C@@H]3F)cnc12 [I-458],,,D (D (<50%)),< 10,
CNc1cc(N2CCc3c(CN4CCC(CN5CCC6(CC5)CCN(C(=O)c5ccc(Cl)c(N7CCC(=O)NC7=O)c5)CC6)C(F)(F)C4)cccc32)nn2c(C(=O)N[C@@H]3C[C@@H]3F)cnc12 (stereo partly shown) [I-766],,,A (A (>90%)),< 1,
CNc1cc(N2CCc3c(C#CCN4CCC(N5CCC6(CCN(C(=O)c7ccc(Cl)c(N8CCC(=O)NC8=O)c7)CC6)CC5)C(F)(F)C4)cccc32)nn2c(C(=O)N[C@@H]3C[C@@H]3F)cnc12 (stereo partly shown) [I-700],,,B (B (90 to >75%)),< 1,
CNc1cc(N2CCc3c(-c4ccc(CN5CC6(CCN(C(=O)c7cc(Cl)c(C)c(N8CCC(=O)NC8=O)c7)CC6(F)F)C5)cn4)cccc32)nn2c(C(=O)N[C@@H]3C[C@@H]3F)cnc12 [I-634],,,A (A (>90%)),< 1,
CNc1cc(N2CCc3c(-c4ncc(CN5CC6(CCN(C(=O)c7cc(N8CCC(=O)NC8=O)c(OC)cc7C)CC6(F)F)C5)cc4F)cccc32)nn2c(C(=O)N[C@@H]3CC[C@H]3OC)cnc12 [I-1135],A (A (>90%)),< 1,,,
"CNc1cc(N2CCc3c(-c4ncc(CN5CC6(CCN(C(=O)c7cc(C)c(Cl)c(N8CCC(=O)NC8=O)c7)CC6(F)F)C5)cc4F)cccc32)nn2c(C(=O)N[C@@H]3C[C@@H]3F)cnc12 [I-813, 6-(4-(5-((7-(4-chloro-3-(2,4-dioxotetrahydropyrimidin-1(2H)-yl)-5-methylbenzoyl)-5,5-difluoro-2,7-diazaspiro[3.5]nonan-2-yl)methyl)-3-fluoropyridin-2-yl)indolin-1-yl)-N-((1R,2S)-2-fluorocyclopropyl)-8-(methylamino)imidazo[1,2-b]pyridazine-3-carboxamide]",,< 1,,,> 90
CNc1cc(N2CCc3c(CN4CCC(N5CCC6(CCN(C(=O)c7cc(N8CCC(=O)NC8=O)c(Cl)c(C)n7)CC6)CC5)C(F)(F)C4)cc(F)cc32)nn2c(C(=O)N[C@@H]3CC[C@H]3OC)cnc12 (stereo partly shown) [I-1159],A (A (>90%)),< 1,,,

SMILES,TYK2 MSD OCI-LY10 Dmax % [1],DC50 [1] [nM],TYK2 MSD OCI-LY10 Dmax % (OCI-LY10 cells),DC50 (OCI-LY10 cells) [nM],Dmax [1] [%]
CNc1cc(N2CCc3c(-c4ccc(CN5CCC6(CCC(Nc7ccc(Cl)c(C8CCC(=O)NC8=O)c7)CC6)CC5)cn4)cccc32)nn2c(C(=O)N[C@@H]3C[C@@H]3F)cnc12 (stereo partly shown) [I-251],C (C (75 to 50%)),< 10,,,
CNc1cc(N2CCc3c(-c4ccc(CN5CCC6(CC5)CCN(c5cc(Cl)cc(NC7CCC(=O)NC7=O)c5)CC6)cn4)cccc32)nn2c(C(=O)NC3CC3)cnc12 (stereo not shown) [I-65],D (D (<50%)),> 100,,,
CNc1cc(N2CCc3c(-c4ccc(CN5CCC6(CC5)CC(COc5ccc(Cl)c(C7CCC(=O)NC7=O)c5)C6)cn4)cccc32)nn2c(C(=O)N[C@@H]3C[C@@H]3F)cnc12 (stereo partly shown) [I-461],,,D (D (<50%)),< 10,
CNc1cc(N2CCc3c(-c4ccc(CN5CCC6(CCN(C(=O)c7ccc(Cl)c(N8CCC(=O)NC8=O)c7)CC6)C(F)(F)C5)cn4)cccc32)nn2c(C(=O)N[C@@H]3CC[C@H]3C(F)(F)F)cnc12 [I-1108],D (D (<50%)),> 100,,,
CNc1cc(N2CCc3c([C@@H](C)N4CC[C@H](N5CCC6(CCN(C(=O)c7cc(C)c(Cl)c(N8CCC(=O)NC8=O)c7)CC6)CC5)C(F)(F)C4)cccc32)nn2c(C(=O)N[C@@H]3CC[C@H]3OC)cnc12 [I-1128],A (A (>90%)),< 1,,,
CNc1cc(N2CCc3c(-c4ccc(OC5CCC6(CC5)CCN(C(=O)c5ccc(Cl)c(N7CCC(=O)NC7=O)c5)CC6)cn4)cccc32)nn2c(C(=O)N[C@@H]3C[C@@H]3F)cnc12 [I-75],C (C (75 to 50%)),< 10,,,
CNc1cc(N2CCc3c(-c4cc(CN5CCN(c6cc7c(cc6F)c(N6CCC(=O)NC6=O)nn7C)CC5)ccn4)cccc32)nn2c(C(=O)N[C@@H]3C[C@@H]3F)cnc12 [I-709],,,D (D (<50%)),< 10,
CNc1cc(N2CCc3c(CN4CCC(CN5CCN(C(=O)c6ccc(Cl)c(N7CCC(=O)NC7=O)c6)CC5)CC4)cccc32)nn2c(C(=O)N[C@@H]3C[C@@H]3F)cnc12 [I-891],D (D (<50%)),> 100,,,
CNc1cc(N2CCc3c(-c4cc(CN5CCN(c6ccc7c(c6)n(C)c(=O)n7C6CCC(=O)NC6=O)CC5)ccn4)cccc32)nn2c(C(=O)NC3CC3)cnc12 (stereo not shown) [I-68],B (B (90 to >75%)),< 1,,,
CNc1cc(N2CCc3c(-c4ccc(CN5CCC6(CC5)CC(Oc5ccc(N7CCC(=O)NC7=O)c(Cl)c5)C6)cn4)cccc32)nn2c(C(=O)N[C@@H]3C[C@@H]3F)cnc12 [I-898],D (D (<50%)),> 100,,,
CNc1cc(N2CCc3c(CN4CCC(N5CCC6(CCN(Cc7ccc(Cl)c(N8CCC(=O)NC8=O)c7)CC6)CC5)C(F)(F)C4)cccc32)nn2c(C(=O)N[C@@H]3C[C@@H]3F)cnc12 (stereo partly shown) [I-844],B (B (90 to >75%)),< 10,,,
CNc1cc(N2CCc3c(-c4cc(CN5CCN(CCc6ccc(Cl)c(C7CCC(=O)NC7=O)c6)CC5)ccn4)cccc32)nn2c(C(=O)NC3CC3F)cnc12 (stereo not shown) [I-395],,,D (D (<50%)),> 100,
CNc1cc(N2CCc3c(-c4ccc(CN5CC6(CCN(C(=O)c7ccc(Cl)c(N8CCC(=O)NC8=O)c7)CC6(F)F)C5)cn4)cccc32)nn2c(C(=O)N[C@H]3C[C@H](OC)C3)cnc12 [I-886],B (B (90 to >75%)),< 10,,,
CNc1cc(N2CCc3c2cccc3C23CC(CN4CCC(N5CC(N6CCN(c7cccc8c7n(C)c(=O)n8C7CCC(=O)NC7=O)CC6)C5)C(F)(F)C4)(C2)C3)nn2c(C(=O)N[C@@H]3C[C@@H]3F)cnc12 (stereo partly shown) [I-429],,,B (B (90 to >75%)),< 10,
CNc1cc(N2CCc3c(-c4ccc(CN5CCC(N6CCC(CC#Cc7ccc8c(c7)n(C)c(=O)n8C7CCC(=O)NC7=O)CC6)C(F)(F)C5)cn4)cccc32)nn2c(C(=O)N[C@@H]3C[C@@H]3F)cnc12 (stereo partly shown) [I-469],,,B (B (90 to >75%)),< 10,
CNc1cc(N2CCc3c(-c4ccc(N5CC6(CCN(Cc7ccc(N8CCC(=O)NC8=O)c(Cl)c7)CC6)C5)cn4)cccc32)nn2c(C(=O)N[C@@H]3C[C@@H]3F)cnc12 [I-881],B (B (90 to >75%)),< 10,,,
CNc1cc(N2CCc3c(-c4ccc(CN5CCC6(CCC(N(C)c7ccc(Cl)c(N8CCC(=O)NC8=O)c7)CC6)CC5)cn4)cccc32)nn2c(C(=O)N[C@@H]3CC[C@H]3OC)cnc12 [I-1009],B (B (90 to >75%)),< 10,,,
